Several values for one entry are separate records, joined by “and”; a condition that tells them apart may be missing. Equal entries are not always repeated. Where two headings read alike, the source gives them in different places.
Assays:
[1] = tested on: LUAD-0077AS1 PDX; assay: PDX efficacy study; type: in vivo, NSG mice; parameters: Tumor volume: unit not given here; details: LUAD-0077AS1, 30 mg/kg BID, individual animals
[2] = tested on: Ba/F3 cells expressing KIF5B–RET^V804L; assay: Growth inhibition assay in Ba/F3 cells (CellTiter-Glo, 72 h); type: cell-based; details: Ba/3-KIF5B-RET-V804L; replicate sets
[3] = tested on: TT cells; assay: Growth inhibition (alamarBlue, 96 h); type: cell-based, human; details: for raw viability signal (Source Data Fig. 3b-c): replicate sets
[4] = tested on: Ba/F3-CCDC6::RET^S904F; assay: Growth inhibition assay in Ba/F3 cells (CellTiter-Glo, 72 h); type: cell-based
[5] = tested on: Ba/F3 cells expressing KIF5B–RET^G810R; assay: as above; type: cell-based; details: replicate Sets 1-3
[6] = tested on: LUAD-0086AS3 cells; assay: Growth inhibition (alamarBlue, 96 h); type: cell-based, human; details: for raw viability signal (Source Data Fig. 3b-c): LUAD-0086AS3 (n=1, 3 replicates)
[7] = tested on: Ba/F3 KIF5B–RET^WT allograft tumors; assay: Subcutaneous allograft efficacy study; type: in vivo, BALB/c nude mice; details: Ba/F3-KIF5B::RET, Ext. Data Fig. 9b
[8] = Homo sapiens, 96 h, read-out: IC50 for Inhibition of Growth (95% CI)

CO[C@]1(C(=O)N[C@@H](C)c2ccc(-n3cc(F)cn3)nc2)CC[C@H](c2nc(C)cc(Nc3cc(C)[nH]n3)n2)CC1 [Pralsetinib]
Tumor volume ([1]; treatment day 7): 72.18 and 70.82 and 68.07 and 66.76 and 74.9
Tumor volume ([1]; treatment day 11): 57.83 (2×) and 60.32 (2×) and 64.12
Tumor volume ([1]; treatment day 14): 52.07 and 53.01 (2×) and 50.68 and 49.83
Tumor volume ([1]; treatment day 19): 65.37 and 57.83 and 55.4 and 60.32 and 51.95
Tumor volume ([1]; treatment day 22): 65.37 and 48.41 and 53.01 and 51.95 (2×)
Tumor volume ([1]; treatment day 25): 65.37 and 83.97 and 60.32 and 53.01 and 55.4
GI50 [2]: 10.6 nM and 6.67 nM and 4.32 nM
raw viability signal (Source Data Fig. 3b-c) ([3]; 0.01 nM): 22929.2 and 25490.7 and 28433.6 and 13300.2 and 25151.2
raw viability signal (Source Data Fig. 3b-c) ([3]; 0.1 nM): 22974.2 and 25164.4 and 33337.3 and 15066.6 and 24111.4
raw viability signal (Source Data Fig. 3b-c) ([3]; 1 nM): 21557.9 and 25049.8 and 31833.5 and 13551.8 and 21692.4
raw viability signal (Source Data Fig. 3b-c) ([3]; 10 nM): 15259.3 and 23182.3 and 22444.5 and 12016.9 and 18286.5
raw viability signal (Source Data Fig. 3b-c) ([3]; 100 nM): 9067.36 and 11673.9 and 13386.9 and 6206.3 and 13339.4
raw viability signal (Source Data Fig. 3b-c) ([3]; 1000 nM): 7976.19 and 8542.52 and 11087 and 4402.24 and 11387.8
raw viability signal (Source Data Fig. 3b-c) ([3]; 10000 nM): 7016.43 and 7739.61 and 10148.3 and 3836.13 and 9483.47
IC50 [3, 8]: 30 nM
GI50 ([4]; BaF3/CCDC6-RET, read-out: GI50 values, Ba/F3-CCDC6::RET S904F, individual sets (replicate experiments)): 6.22 nM
GI50 ([4]; Mus musculus, BaF3, 72 h, read-out: GI50 value (Mean ± SD), Ba/F3-CCDC6::RET^S904F, CellTiter-Glo, 72 h): 6.02 ± 1.69 nM
GI50 ([4]; read-out: GI50 values, Ba/F3-CCDC6::RET S904F, individual sets (replicate experiments)): 7.61 nM and 4.24 nM
GI50 ([5]; Ba/3-KIF5B-RET-G810R): 1420 nM and 1200 nM
GI50 ([5]; Mus musculus, BaF3, Ba/3-KIF5B-RET-G810R): 816 nM
IC50 [6, 8]: 121 nM
raw viability signal (Source Data Fig. 3b-c) ([6]; 0.01 nM): 31309.7 and 31098.7 and 34263.2
raw viability signal (Source Data Fig. 3b-c) ([6]; 0.1 nM): 29924.8 and 30921.2 and 29063.2
raw viability signal (Source Data Fig. 3b-c) ([6]; 1 nM): 27745.6 and 30045.6 and 27962.9
raw viability signal (Source Data Fig. 3b-c) ([6]; 10 nM): 27211.8 and 27719.7 and 26448.1
raw viability signal (Source Data Fig. 3b-c) ([6]; 100 nM): 16795 and 17102.3 and 12766
raw viability signal (Source Data Fig. 3b-c) ([6]; 1000 nM): 14016.5 and 12908.6 and 9876.85
raw viability signal (Source Data Fig. 3b-c) ([6]; 10000 nM): 5069.85 and 4707.96 and 4562.26
Tumor Volume Mean ([7]; 3 mg/kg BID, Day 1): 221.52 mm3
Tumor Volume Mean ([7]; 3 mg/kg BID, Day 4): 379.17 mm3
Tumor Volume Mean ([7]; 3 mg/kg BID, Day 8): 482.68 mm3
Tumor Volume Mean ([7]; 3 mg/kg BID, Day 11): 745.24 mm3
Tumor Volume Mean ([7]; 3 mg/kg BID, Day 15): 1198.84 mm3
Tumor Volume Mean ([7]; 10 mg/kg BID, Day 1): 212.85 mm3
Tumor Volume Mean ([7]; 10 mg/kg BID, Day 4): 215.66 mm3
Tumor Volume Mean ([7]; 10 mg/kg BID, Day 8): 297.15 mm3
Tumor Volume Mean ([7]; 10 mg/kg BID, Day 11): 403.26 mm3
Tumor Volume Mean ([7]; 10 mg/kg BID, Day 15): 433.99 mm3
Tumor Volume Mean ([7]; 30 mg/kg BID, Day 1): 218.49 mm3
Tumor Volume Mean ([7]; 30 mg/kg BID, Day 4): 127.84 mm3
Tumor Volume Mean ([7]; 30 mg/kg BID, Day 8): 80.68 mm3
Tumor Volume Mean ([7]; 30 mg/kg BID, Day 11): 53.52 mm3
Tumor Volume Mean ([7]; 30 mg/kg BID, Day 15): 67.12 mm3
Tumor Volume Mean ([7]; 60 mg/kg BID, Day 1): 225.80 mm3
Tumor Volume Mean ([7]; 60 mg/kg BID, Day 4): 95.08 mm3
Tumor Volume Mean ([7]; 60 mg/kg BID, Day 8): 69.89 mm3
Tumor Volume Mean ([7]; 60 mg/kg BID, Day 11): 52.39 mm3
Tumor Volume Mean ([7]; 60 mg/kg BID, Day 15): 58.70 mm3

Reference: PMC10518257 (Nature Cancer, 2023)
